{"source": "patent US12383542B2", "about": "“Methods of treating ovarian cancer” (TESARO, INC., priority 2016, dated 2025)", "key": {"[1]": {"conditions": "in vivo", "method": "Patients with ovarian cancer regardless of platinum sensitivity and burden of disease were randomized to either Group A or Group B with 6 patients assigned to each group. […] In Group B, patients fasted for at least 10 hours before consuming a high fat meal."}, "[2]": {"test_system": "MDA-MB-436, CAPAN-1, GRANTA-519, OVCAR3, HT29, DLD-1, patient derived Ewing's sarcoma and TNBC xenograft models", "conditions": "xenograft models in mice"}, "[3]": {"test_system": "Ewing's sarcoma, ALL, NSCLC, SCLC cell lines and tumor cell lines carrying homozygous inactivation of the ATM gene"}, "PARP activity [4]": {"test_system": "PARP activity", "conditions": "mice dosed with niraparib"}, "PARP activity [5]": {"test_system": "PARP activity", "conditions": "tumor homogenates"}, "[6]": {"source_text": "Patients continued to receive their assigned treatment until disease progression, unacceptable toxicity, death, withdrawal of consent, and/or lost to follow-up. Dose interruption and/or reduction were available at any time for any grade toxicity considered intolerable by the patient.\nDose interruption and/or reduction could be implemented at any time for any grade toxicity considered intolerable by the patient. Treatment was required to be interrupted for any non-hematologic AE that was Grade 3 or 4, per NCI CTCAE v.4.02 if the Investigator considered the event to be related to administration of study drug. If toxicity was appropriately resolved to baseline or Grade 1 or less within 28 days, the patient was allowed to restart treatment with study drug, but with a dose level reduction according to Table 4, if prophylaxis was not considered feasible."}, "[7]": {"test_system": "cancer cell lines that have been silenced for BRCA-1 or BRCA-2, or carry BRCA-1 or BRCA-2 mutations"}, "[8]": {"test_system": "platinum-sensitive recurrent ovarian cancer", "conditions": "for patients with PFS events at the time of unblinding: patients entering with PR; for Time to second subsequent treatment, HR: <40% of events"}, "PARP activity [9]": {"test_system": "PARP activity", "test": "cells"}, "ovarian cancer [10]": {"test_system": "ovarian cancer", "conditions": "relatively small sample size; cited from earlier work"}, "ovarian cancer [11]": {"test_system": "ovarian cancer", "conditions": "cited from earlier work"}, "ovarian cancer [12]": {"test_system": "ovarian cancer", "conditions": "cited from earlier work", "remark": "listed apart in the source"}, "[13]": {"test_system": "platinum-sensitive epithelial ovarian cancer", "conditions": "cited from earlier work"}, "[14]": {"test_system": "advanced BRCA-mutant ovarian cancer", "conditions": "cited from earlier work"}, "[15]": {"conditions": "all patients treated with niraparib"}, "[16]": {"conditions": "HRDneg group, listed as Niraparib"}}, "note": "pIC50: −log10 of the molar value. Values joined by “and” are separate entries in the source; they are usually repeats but may differ in a detail not shown here. Equal values may be shown once. Where a name gives a salt, the structure may show the parent alone. Read-outs that look alike come from different tables or passages of the source."}
{"compound": "NC(=O)c1cccc2cn(-c3ccc([C@@H]4CCCNC4)cc3)nc12", "note": "[niraparib, (3S)-3-[4-{7-(aminocarbonyl)-2H-indazol-2-yl}phenyl]piperidine]", "values": [{"measurement": "bioavailability in fed versus fasted state", "setting": "[1]", "value": "substantially similar"}, {"measurement": "activity on normal human cells", "setting": "normal human cells", "value": "weak activity"}, {"measurement": "antitumor activity", "setting": "[2]", "value": "strong antitumor activity"}, {"measurement": "cytotoxicity", "setting": "[3]", "value": "selectively cytotoxic"}, {"measurement": "PARP activity in PBMCs", "setting": "PARP activity [4]", "value": "Inhibition of PARP activity"}, {"measurement": "target engagement (PARP activity)", "setting": "PARP activity [5]", "value": "Target engagement has also been demonstrated"}, {"measurement": "rate of MDS/AML", "setting": "[6]; ITT population", "value": 1.3, "unit": "%"}, {"measurement": "treatment-emergent grade 3/4 anemia", "setting": "[6]; [15]", "value": 24.8, "unit": "%"}, {"measurement": "treatment-emergent grade 3/4 neutropenia", "setting": "[6]; [15]", "value": 11.2, "unit": "%"}, {"measurement": "treatment-emergent grade 3/4 thrombocytopenia", "setting": "[6]; [15]", "value": 28.3, "unit": "%"}, {"measurement": "grade 5 events", "setting": "[6]; human, in vivo, 300 mg QD", "value": "No grade 5 events occurred"}, {"measurement": "TEAEs leading to dose reduction", "setting": "[6]; in vivo", "value": 67, "unit": "%"}, {"measurement": "TEAEs leading to treatment discontinuation", "setting": "[6]; in vivo", "value": 15, "unit": "%"}, {"measurement": "TEAEs leading to treatment interruption", "setting": "[6]; in vivo", "value": 69, "unit": "%"}, {"measurement": "grade 3 or 4 bleeding event", "setting": "[6]; in vivo", "value": "No patient"}, {"measurement": "incidence of CTCAE Grade ≥3 TEAEs", "setting": "[6]; in vivo", "value": 74, "unit": "%"}, {"measurement": "incidence of SAEs", "setting": "[6]; in vivo", "value": 30, "unit": "%"}, {"measurement": "incidence of treatment-related TEAEs", "setting": "[6]; in vivo", "value": 98, "unit": "%"}, {"measurement": "patients remaining on niraparib for the duration of the study", "setting": "[6]; in vivo", "value": "~85", "unit": "%"}, {"measurement": "patients with at least 1 TEAE", "setting": "[6]; in vivo", "value": "all patients"}, {"measurement": "mean platelet count over time", "setting": "[6]; overall niraparib treated population, after decrease by day 15", "value": "generally returned to near baseline by Cycle 4"}, {"measurement": "incidence of MDS/AML", "setting": "[6]; patients who received niraparib (5 of 367)", "value": "1.4% and 1%"}, {"measurement": "consequence on cell cycle", "setting": "[7]; BRCA-defective cells", "value": "cell cycle arrest in G2/M followed by apoptosis"}, {"measurement": "anti-proliferative activity", "setting": "[7]; compared to wild type counterparts", "value": "selective anti-proliferative activity"}, {"measurement": "% of Patients without Progression or Death at 6 Months", "setting": "[8]; HRDneg group", "value": 54, "unit": "%"}, {"measurement": "% of Patients without Progression or Death at 12 Months", "setting": "[8]; HRDneg group", "value": 27, "unit": "%"}, {"measurement": "% of Patients without Progression or Death at 18 Months", "setting": "[8]; HRDneg group", "value": 19, "unit": "%"}, {"measurement": "% of Patients without Progression or Death at 12 Months", "setting": "[8]; [16]", "value": 27, "unit": "%"}, {"measurement": "% of Patients without Progression or Death at 18 Months", "setting": "[8]; [16]", "value": 19, "unit": "%"}, {"measurement": "% of Patients without Progression or Death at 6 Months", "setting": "[8]; HRDpos group", "value": 69, "unit": "%"}, {"measurement": "% of Patients without Progression or Death at 12 Months", "setting": "[8]; HRDpos group", "value": 51, "unit": "%"}, {"measurement": "% of Patients without Progression or Death at 18 Months", "setting": "[8]; HRDpos group", "value": 37, "unit": "%"}, {"measurement": "chemotherapy-free interval", "setting": "[8]; both cohorts, versus placebo", "value": "significantly improved"}, {"measurement": "time to first subsequent treatment", "setting": "[8]; both cohorts, versus placebo", "value": "significantly improved"}, {"measurement": "Overall Survival, HR", "setting": "[8]; combined cohorts, data immature, 80% of patients censored", "value": "HR 0.73 (95% CI: 0.480, 1.125)"}, {"measurement": "Median PFS", "setting": "[8]; combined study population (gBRCAmut and non-gBRCAmut), exploratory pooled analysis", "value": 11.3, "unit": "months"}, {"measurement": "PFS by niraparib dose of longest duration (100, 200, 300 mg)", "setting": "[8]; gBRCAmut and non-gBRCAmut cohorts", "value": "consistent with the overall population"}, {"measurement": "% of Patients without Progression or Death at 6 Months", "setting": "[8]; gBRCAmut cohort", "value": 80, "unit": "%"}, {"measurement": "% of Patients without Progression or Death at 12 Months", "setting": "[8]; gBRCAmut cohort", "value": 62, "unit": "%"}, {"measurement": "% of Patients without Progression or Death at 18 Months", "setting": "[8]; gBRCAmut cohort", "value": 50, "unit": "%"}, {"measurement": "Median PFS", "setting": "[8]; gBRCAmut cohort", "value": 21.0, "unit": "Months"}, {"measurement": "progression-free survival 2", "setting": "[8]; gBRCAmut cohort", "value": 25.8, "unit": "months"}, {"measurement": "Median PFS", "setting": "[8]; gBRCAmut cohort, listed as Niraparib", "value": "21.0 Months and 21.0 (12.9, NE) Months"}, {"measurement": "patients with PFS events at the time of unblinding", "setting": "[8]; gBRCAmut", "value": 45, "unit": "%"}, {"measurement": "Time to second subsequent treatment, HR", "setting": "[8]; gBRCAmut, data immature", "value": "HR 0.48 (95% CI: 0.272, 0.851)"}, {"measurement": "impact of treatment on OS", "setting": "[8]; in vivo", "value": "no detrimental impact"}, {"measurement": "% of Patients without Progression or Death at 6 Months", "setting": "[8]; non-gBRCAmut cohort", "value": 61, "unit": "%"}, {"measurement": "% of Patients without Progression or Death at 12 Months", "setting": "[8]; non-gBRCAmut cohort", "value": 41, "unit": "%"}, {"measurement": "% of Patients without Progression or Death at 18 Months", "setting": "[8]; non-gBRCAmut cohort", "value": 30, "unit": "%"}, {"measurement": "Median PFS", "setting": "[8]; non-gBRCAmut, HRD negative", "value": 6.9, "unit": "Months"}, {"measurement": "Median PFS", "setting": "[8]; non-gBRCAmut, HRD negative, listed as Niraparib", "value": "6.9 Months and 6.9 (5.6, 9.6) Months"}, {"measurement": "Median PFS", "setting": "[8]; non-gBRCAmut, HRD-positive", "value": 12.9, "unit": "Months"}, {"measurement": "Median PFS", "setting": "[8]; non-gBRCAmut, HRD-positive, listed as Niraparib", "value": "12.9 Months and 12.9 (8.1, 15.9) Months"}, {"measurement": "Median PFS", "setting": "[8]; non-gBRCAmut, HRDpos/BRCAwt", "value": 9.3, "unit": "Months"}, {"measurement": "Median PFS", "setting": "[8]; non-gBRCAmut, HRDpos/somatic BRCAmut", "value": 20.9, "unit": "Months"}, {"measurement": "patients with PFS events at the time of unblinding", "setting": "[8]; non-gBRCAmut", "value": 56, "unit": "%"}, {"measurement": "Time to second subsequent treatment, HR", "setting": "[8]; non-gBRCAmut, data immature", "value": "HR 0.74 (95% CI: 0.519, 1.066)"}, {"measurement": "Median PFS", "setting": "[8]; overall non-gBRCAmut cohort", "value": 9.3, "unit": "Months"}, {"measurement": "median PFS 2", "setting": "[8]; overall non-gBRCAmut cohort", "value": 18.64, "unit": "months"}, {"measurement": "Median PFS", "setting": "[8]; overall non-gBRCAmut cohort, listed as Niraparib", "value": "9.3 Months and 9.3 (7.2, 11.2) Months"}, {"measurement": "PFS2-PFS1 (efficacy of next-line treatment)", "setting": "[8]; pooled cohorts, versus placebo", "value": "similar"}, {"measurement": "pIC50", "setting": "PARP activity [9]; read-out: IC50 of PARP activity in cells", "value": "~8.40"}, {"measurement": "IC90", "setting": "PARP activity [9]; read-out: inhibitory concentration at 90% of control (IC90)", "value": "~50", "unit": "nM"}]}
{"compound": "C[C@]1(c2nc3c(C(N)=O)cccc3[nH]2)CCCN1", "note": "[veliparib, 2-[(R)-2-methylpyrrolidin-2-yl]-1H-benzimidazole-4-carboxamide]", "values": [{"measurement": "effect on the progression of ovarian cancer", "setting": "ovarian cancer [10]", "value": "unable to show any effect"}]}
{"compound": "O=C(c1cc(Cc2n[nH]c(=O)c3ccccc23)ccc1F)N1CCN(C(=O)C2CC2)CC1", "note": "[olaparib, 4-[(3-{[4-(cyclopropylcarbonyl)piperazin-1-yl]carbonyl}-4-fluorophenyl)methyl]phthalazin-1(2H)-one]", "values": [{"measurement": "responses", "setting": "ovarian cancer [11]; 17 patients with BRCA1 or BRCA2 mutations", "value": 7}, {"measurement": "responses", "setting": "ovarian cancer [11]; 46 patients without these mutations", "value": 11}, {"measurement": "Median PFS", "setting": "ovarian cancer [12]; patients with BRCA mutations", "value": 11.2, "unit": "months"}, {"measurement": "planned analysis of the subset of patients with BRCA mutations", "setting": "ovarian cancer [12]; phase II maintenance study", "value": "a clear advantage"}, {"measurement": "serious adverse events versus control group", "setting": "[13]; human, in vivo", "value": "more common"}, {"measurement": "change in overall survival", "setting": "[13]; women with germline BRCA mutations, versus placebo or no treatment", "value": "no significant change"}]}
{"compound": "CNCc1ccc(-c2[nH]c3cc(F)cc4c3c2CCNC4=O)cc1", "note": "[rucaparib, 8-fluoro-2-{4-[(methylamino)methyl]phenyl}-1,3,4,5-tetrahydro-6H-azepino[5,4,3-cd]indol-6-one ((1S,4R)-7,7-dimethyl-2-oxobicyclo[2.2.1]hept-1-yl)methanesulfonic acid salt]", "values": [{"measurement": "Response assessment by independent radiology review", "setting": "[14]; 600 mg orally twice daily, 106 patients", "value": 42, "unit": "%"}, {"measurement": "median DOR", "setting": "[14]; independent radiology review", "value": 6.7, "unit": "months"}, {"measurement": "Investigator-assessed ORR", "setting": "[14]; platinum-refractory patients", "value": 0, "unit": "%"}, {"measurement": "Investigator-assessed ORR", "setting": "[14]; platinum-resistant patients", "value": 25, "unit": "%"}, {"measurement": "Investigator-assessed ORR", "setting": "[14]; platinum-sensitive patients", "value": 66, "unit": "%"}]}
